From patent publication US20230104936A1, “TRPML MODULATORS” (Casma Therapeutics, Inc., priority 2019, published 2023)

Each compound was assayed on TFEB (assay: TFEB nuclear translocation assay, HeLa wt cells). Conditions: 2 hrs compound treatment, Table 1 does not say HeLa wt or TRPML1 KO.
Assay type: cell-based
Procedure, shortened: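 HeLa wt, 2 hr compound, 37° C; 4% PFA fix; anti-TFEB (rabbit, 1:200, overnight 4° C) + Alexa 488 secondary, Hoechst. Imaged ×20, 4 fields/well. Readout: nuclear/ring Alexa 488 intensity ratio; AC50.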
`C[C@@H]1COC[C@@H](C)N1CC1CCN(c2c(F)cccc2NS(=O)(=O)c2ccc(S(=N)(=O)N(C)C)cc2)CC1` (stereo partly drawn) [Compound A-836, N-(2-(4-(((3S,5S)-3,5-dimethylmorpholino)methyl)piperidin-1-yl)-3-fluorophenyl)-4-(N,N-dimethylsulfamidimidoyl)benzenesulfonamide] was tested, and the AC50 was 2010 to 8000 nM. `CC(c1cccc(F)c1N1CCC(CN2C3CCC2COC3)CC1)S(=O)(=O)c1ccc(S(=O)(=O)N(C)C)cc1` (stereo not shown) [Compound A-839, 4-(1-{3-fluoro-2-[4-({3-oxa-8-azabicyclo[3.2.1]octan-8-yl}methyl)piperidin-1-yl]phenyl}ethanesulfonyl)-N,N-dimethylbenzene-1-sulfonamide] was tested, and the AC50 was ≤ 2000 nM. In the case of `C[C@H]1COC[C@H](C)N1CC1CCN(c2c(F)cccc2NS(=O)(=O)c2ccc(S(=N)(=O)N(C)C)cc2)CC1` (stereo partly drawn) [Compound A-840, N-(2-(4-(((3S,5S)-3,5-dimethylmorpholino)methyl)piperidin-1-yl)-3-fluorophenyl)-4-(N,N-dimethylsulfamidimidoyl)benzenesulfonamide], the AC50 is reported as ≤ 2000 nM. `CN(C)S(=N)(=O)c1ccc(S(=O)(=O)Nc2cccc(F)c2N2CCC(CN3CC4CCC(C3)O4)CC2)cc1` (stereo not shown) [Compound A-852, N-(2-(4-((8-oxa-3-azabicyclo[3.2.1]octan-3-yl)methyl)piperidin-1-yl)-3-fluorophenyl)-4-(N,N-dimethylsulfamidimidoyl)benzenesulfonamide] was tested, and the AC50 was ≤ 2000 nM. For `CN(C)S(=N)(=O)c1ccc(S(=O)(=O)Nc2cccc(F)c2N2CCC(CN3CC4CCC(C3)O4)CC2)cc1` (stereo not shown) [Compound A-853, N-(2-(4-((8-oxa-3-azabicyclo[3.2.1]octan-3-yl)methyl)piperidin-1-yl)-3-fluorophenyl)-4-(N,N-dimethylsulfamidimidoyl)benzenesulfonamide], the AC50 was ≤ 2000 nM. Work on `CC(c1cccc(F)c1N1CCC(CN2C3CCC2COC3)CC1)S(=O)(=O)c1ccc(S(=O)(=O)N(C)C)cc1` (stereo not shown) [Compound A-855, 4-((1-(2-(4-((3-oxa-8-azabicyclo[3.2.1]octan-8-yl)methyl)piperidin-1-yl)-3-fluorophenyl)ethyl)sulfonyl)-N,N-dimethylbenzenesulfonamide] yielded an AC50 of 2010 to 8000 nM. `CC(c1cccc(F)c1N1CCC(CN2C3COCC2C3)CC1)S(=O)(=O)c1ccc(S(=O)(=O)N(C)C)cc1` (stereo not shown) [Compound A-860, 4-(1-{3-fluoro-2-[4-({3-oxa-6-azabicyclo[3.1.1]heptan-6-yl}methyl)piperidin-1-yl]phenyl}ethanesulfonyl)-N,N-dimethylbenzene-1-sulfonamide] showed an AC50 of 2010 to 8000 nM. For `CC(c1cccc(F)c1N1CCC(CN2C3COCC2C3)CC1)S(=O)(=O)c1ccc(S(=O)(=O)N(C)C)cc1` (stereo not shown) [Compound A-870, 4-((1-(2-(4-((3-oxa-6-azabicyclo[3.1.1]heptan-6-yl)methyl)piperidin-1-yl)-3-fluorophenyl)ethyl)sulfonyl)-N,N-dimethylbenzenesulfonamideformate], the AC50 was ≥ 10000 nM.

Same assay, conditions: Homo sapiens, HeLa, 2 h, 2 hrs compound treatment, Table 1 does not say HeLa wt or TRPML1 KO
For `CC(c1cccc(F)c1N1CCC(CN2C[C@H]3C[C@@H](C2)O3)CC1)S(=O)(=O)c1ccc(S(=O)(=O)N(C)C)cc1` (stereo partly drawn) [Compound A-837, 4-{1-[3-fluoro-2-(4-{[(1R,5S)-6-oxa-3-azabicyclo[3.1.1]heptan-3-yl]methyl}piperidin-1-yl)phenyl]ethanesulfonyl}-N,N-dimethylbenzene-1-sulfonamide], the AC50 was ≤ 2000 nM. `C[C@@H]1CN(CC2CCN(c3c(F)cccc3NS(=O)(=O)c3ccc(S(C)(=N)=O)cc3)CC2)C[C@H](C)O1` (stereo partly drawn) [Compound A-841, N-(2-(4-(((2R,6S)-2,6-dimethylmorpholino)methyl)piperidin-1-yl)-3-fluorophenyl)-4-(S-methylsulfonimidoyl)benzenesulfonamide] showed an AC50 of 2010 to 8000 nM. For `CC(c1cccc(C#N)c1N1CCC(CN2C[C@@H](C)O[C@@H](C)C2)CC1)S(=O)(=O)c1ccc(S(=O)(=O)N(C)C)cc1` (stereo partly shown) [Compound A-842, 4-((1-(3-cyano-2-(4-((2,6-dimethylmorpholino)methyl)piperidin-1-yl)phenyl)ethyl)sulfonyl)-N,N-dimethylbenzenesulfonamide], the AC50 was ≤ 2000 nM. With `CN(C)S(=N)(=O)c1ccc(S(=O)(=O)Nc2cccc(F)c2N2CCC(CN3CC4CCC(C3)O4)CC2)cc1` (stereo not shown) [Compound A-844, 4-({3-fluoro-2-[4-({8-oxa-3-azabicyclo[3.2.1]octan-3-yl}methyl)piperidin-1-yl]phenyl}sulfamoyl)-N,N-dimethylbenzene-1-sulfonoimidamide] the AC50 was ≤ 2000 nM. `CC(c1ccncc1N1CCC(CN2C[C@@H](C)O[C@@H](C)C2)CC1)S(=O)(=O)c1ccc(S(=O)(=O)N(C)C)cc1` (stereo partly drawn) [Compound A-850, 4-{1-[3-(4-{[(2R,6S)-2,6-dimethylmorpholin-4-yl]methyl}piperidin-1-yl)pyridin-4-yl]ethanesulfonyl}-N,N-dimethylbenzene-1-sulfonamide] gave an AC50 of 2010 to 8000 nM. With `CN(C)S(=O)(=O)c1ccc(S(=O)(=O)Nc2cncc(F)c2N2CCCCC2)cc1` [Compound A-856, N1-(5-fluoro-4-(piperidin-1-yl)pyridin-3-yl)-N^4,N^4-dimethylbenzene-1,4-disulfonamide] the AC50 was ≥ 10000 nM. In the case of `CCC(C1CCN(c2c(F)cccc2NS(=O)(=O)c2ccc(S(=N)(=O)N(C)C)cc2)CC1)N1CCOCC1` (stereo not shown) [Compound A-857, 4-[(3-fluoro-2-{4-[1-(morpholin-4-yl)propyl]piperidin-1-yl}phenyl)sulfamoyl]-N,N-dimethylbenzene-1-sulfonoimidamide], the AC50 is reported as ≤ 2000 nM. In the case of `CN(C)S(=N)(=O)c1ccc(S(=O)(=O)Nc2cccc(F)c2N2CCC(C3(N4CCOCC4)CC3)CC2)cc1` (stereo not shown) [Compound A-858, 4-[(3-fluoro-2-{4-[1-(morpholin-4-yl)cyclopropyl]piperidin-1-yl}phenyl)sulfamoyl]-N,N-dimethylbenzene-1-sulfonoimidamide], the AC50 is reported as ≤ 2000 nM. `CC(c1cccc(F)c1N1CCC(CN2C[C@@H](C)O[C@H](C)C2)CC1)S(=O)(=O)c1ccc(S(=O)(=O)N(C)C)cc1` (stereo partly drawn) [Compound A-859, 4-{1-[2-(4-{[(2R,6R)-2,6-dimethylmorpholin-4-yl]methyl}piperidin-1-yl)-3-fluorophenyl]ethanesulfonyl}-N,N-dimethylbenzene-1-sulfonamide] was tested, and the AC50 was ≤ 2000 nM. In the case of `COCC(F)(F)C1CCN(c2c(F)cccc2NS(=O)(=O)c2ccc(S(=O)(=O)N(C)C)cc2)CC1` [Compound A-861, N4-{2-[4-(1,1-difluoro-2-methoxyethyl)piperidin-1-yl]-3-fluorophenyl}-N1,N1-dimethylbenzene-1,4-disulfonamide], the AC50 is reported as ≤ 2000 nM. For `C[C@H]1CN(CC2CCN(c3c(F)cccc3NS(=O)(=O)c3ccc(S(=O)(=O)N(C)C)cc3)CC2)[C@@H](C)CO1` [Compound A-862, N4-[2-(4-{[(2S,5S)-2,5-dimethylmorpholin-4-yl]methyl}piperidin-1-yl)-3-fluorophenyl]-N1,N1-dimethylbenzene-1,4-disulfonamide], the AC50 was ≤ 2000 nM. In the case of `C[C@@H]1CN(CC2CCN(c3c(NS(=O)(=O)c4ccc(S(=O)(=O)N(C)C)cc4)cccc3C3CC3)CC2)C[C@H](C)O1` [Compound A-863, N4-[3-cyclopropyl-2-(4-{[(2R,6S)-2,6-dimethylmorpholin-4-yl]methyl}piperidin-1-yl)phenyl]-N1,N1-dimethylbenzene-1,4-disulfonamide], the AC50 is reported as ≤ 2000 nM. In the case of `C[C@@H]1CN(CC2CCN(c3c(Br)cccc3NS(=O)(=O)c3ccc(S(=O)(=O)N(C)C)cc3)CC2)C[C@H](C)O1` [Compound A-864, N4-[3-bromo-2-(4-{[(2R,6S)-2,6-dimethylmorpholin-4-yl]methyl}piperidin-1-yl)phenyl]-N1,N1-dimethylbenzene-1,4-disulfonamide], the AC50 is reported as ≤ 2000 nM. With `C[C@@H]1CN(CC2CCN(c3c(F)cccc3NS(=O)(=O)c3ccc(S(=O)(=O)N(C)C)cc3)CC2)[C@@H](C)CO1` [Compound A-865, N4-[2-(4-{[(2R,5S)-2,5-dimethylmorpholin-4-yl]methyl}piperidin-1-yl)-3-fluorophenyl]-N1,N1-dimethylbenzene-1,4-disulfonamide] the AC50 was ≤ 2000 nM. With `CC1COCC(C)N1CC1CCN(c2c(F)cccc2NS(=O)(=O)c2ccc(S(=O)(=O)C(F)F)cc2)CC1` (stereo not shown) [Compound A-866, 4-difluoromethanesulfonyl-N-(2-{4-[(3,5-dimethylmorpholin-4-yl)methyl]piperidin-1-yl}-3-fluorophenyl)benzene-1-sulfonamide] the AC50 was ≤ 2000 nM. In the case of `CN(C)S(=N)(=O)c1ccc(S(=O)(=O)Nc2cccc(F)c2N2CCC(CN3CCOCC3(C)C)CC2)cc1` (stereo not shown) [Compound A-867, 4-[(2-{4-[(3,3-dimethylmorpholin-4-yl)methyl]piperidin-1-yl}-3-fluorophenyl)sulfamoyl]-N,N-dimethylbenzene-1-sulfonoimidamide], the AC50 is reported as ≤ 2000 nM. With `C[C@@H]1CN(C2CCN(c3c(F)cccc3NS(=O)(=O)c3ccc(S(=O)(=O)N(C)C)cc3)CC2)C[C@H](C)O1` [Compound A-868, N4-(2-{4-[(2R,6S)-2,6-dimethylmorpholin-4-yl]piperidin-1-yl}-3-fluorophenyl)-N1,N1-dimethylbenzene-1,4-disulfonamide] the AC50 was ≤ 2000 nM. In the case of `CC(c1cccc(F)c1N1CCC(CN2C3COCC2C3)CC1)S(=O)(=O)c1ccc(S(=O)(=O)N(C)C)cc1` [Compound A-869, rel-4-[(1R)-1-{3-fluoro-2-[4-({3-oxa-6-azabicyclo[3.1.1]heptan-6-yl}methyl)piperidin-1-yl]phenyl}ethanesulfonyl]-N,N-dimethylbenzene-1-sulfonamide], the AC50 is reported as 2010 to 8000 nM. With `CC(C1CCN(c2c(F)cccc2NS(=O)(=O)c2ccc(S(=N)(=O)N(C)C)cc2)CC1)N1C[C@@H](C)O[C@@H](C)C1` (stereo partly drawn) [Compound A-872A, N-(2-(4-(1-((2S,6R)-2,6-dimethylmorpholino)ethyl)piperidin-1-yl)-3-fluorophenyl)-4-(N,N-dimethylsulfamidimidoyl)benzenesulfonamide] the AC50 was ≤ 2000 nM. With `CN(C)S(=O)(=O)c1ccc(S(=O)(=O)Nc2cccc(F)c2N2CCC(N3CCC4(CCOC4)C3)CC2)cc1` (stereo not shown) [Compound A-874, N4-[3-fluoro-2-(4-{2-oxa-7-azaspiro[4.4]nonan-7-yl}piperidin-1-yl)phenyl]-N1,N1-dimethylbenzene-1,4-disulfonamide] the AC50 was 2010 to 8000 nM.
